Patent publication US12152038B2, “Vasopressin receptor antagonists and products and methods related thereto” (Neumora Therapeutics, Inc., priority 2017, dated 2024)

System: Male CD-1 mice
Experiment: AVP induced scratching, digging and grooming behavior in mouse
Type: in vivo
Conditions: po, AVP i.c.v., 15 minutes observation
From the text: Administration of Arginine-Vasopressin (AVP) intracerebroventricularly (i.c.v.) elicits characteristic scratching, digging and grooming behavior in mice that can be measured readily and is sensitive to blockade with vasopressin antagonists (Meisenberg, Ann N Y Acad Sci. 525:257-69, 1988; Bleickardt et. al., Psychopharmacology (Berl). 202(4):711-8, 2009).
Male CD-1 mice (Charles River Germany) weighing 22-25 g upon the study in-life were used for this study. Animals were housed in groups of 4-5 per cage in standard temperature (22±1° C.) and light-controlled environment (lights on from 7 am to 8 pm), with ad libitum access to food and water. Prior to commencing any procedures to the mice, they were allowed to habituate in the vivarium for a minimum of 7 days. Anesthesia was induced in a plexiglass chamber for 2-3 min with 5% isoflurane and maintained through a snout mask with 1-2% isoflurane thereafter. A homeothermic blanket system with a rectal probe was used to monitor and maintain the animal's body temperature at 37.0° C.±1.5° C. during the operation. Anesthetized mice were placed in a stereotaxic apparatus and skin between the ears shaved and disinfected with povidone-iodine solution (Betadine). A 10-μl Hamilton syringe with 28-gauge needle was used for the i.c.v. injections. All animals receive identical AVP injections (3.689 μM) or sterile saline (0.9% sodium chloride solution) into the right lateral ventricle at the following coordinates: AP=+0.5 mm; ML=+1.0 mm; DV=−2.5 mm (approximately from bregma). The actual coordinates were calculated by the distance from the point in midline between the eyes and no skin incision was made. […]
Mice were observed and video-recorded for 15 minutes following AVP/saline administration and behaviors were measured (in seconds) and a cumulative time was calculated. […] Using this assay, balovaptan (100 and 300 mg/kg, po), JNJ-17308616 (30, 100 mg/kg, po) and Compound No. 1-83B (100, 300, 500 mg/kg, po) were evaluated for antagonist activity to AVP-induced scratching behaviors.

Compound: CC1COc2cc(Cl)ccc2N1C(=O)N1CC2(C1)CN(c1ncccn1)C2 (single isomer, unassigned) [1-83-B, (7-chloro-3-methyl-2,3-dihydro-4H-benzo[b][1,4]oxazin-4-yl)(6-(pyrimidin-2-yl)-2,6-diazaspiro[3.3]heptan-2-yl)methanone]
- antagonist activity to AVP-induced scratching behaviors (300 mg/kg): effective
- antagonist activity to AVP-induced scratching behaviors (500 mg/kg): effective
